Test results as given in US6723333B1, “Moulded bodies made of thermoplastic polyurethane containing an active substance” (priority 1998, dated 2004).

Test system: sensor bacteria (E. coli—test strain)
Assay: Bioimaging of released active substance by effect-dependent bioluminescence of sensor bacteria
Format: cell-based
Conditions: after high temperatures of about 200° C. required for thermoplastic processing
Experimental: Microbiological evaluation and quantification of the release of active substance was performed using a new bioimaging technique. This method makes use of the selective effect-dependent bioluminescence of sensor bacteria (E. coli—test strain), in order to render visible the biological activity of the released active substance. The gyrase-inhibiting effect of ciprofloxacin was used in the system according to the invention, Texin® 5590 ciprofloxacin.
For imaging of the antibacterial effect, about 1 cm^2 sized samples of the active substance-containing material were placed in a petri dish and covered with a suspension of sensor bacteria in agarose. After an incubation period of about 30 minutes, the effect-dependent bioluminescence was assessed using a video-imaging system (e.g. EG&G Berthold, Luminograph LB 980). Antibiotic samples then appeared as luminescing areas.

O=C(O)c1cn(C2CC2)c2cc(N3CCNCC3)c(F)cc2c1=O [ciprofloxacin]
microbiological efficacy of the ciprofloxacin released from the polymer matrix: retained
